From ChEMBL document CHEMBL5579815, “Novel angiogenesis inhibitors with superoxide anion radical amplification effect: Surmounting the Achilles' heels of angiogenesis inhibitors and photosensitizers” (Eur J Med Chem, 2024)
Activity calls are given as the source filed them. The rule behind the calls is not given here.

How the values were obtained:
[1] = Induction of ROS generation in methanol solution assessed as increase in superoxide anion radical level by measuring fold increase in DHR123 fluorescence intensity at 10 uM irradiated with 650 nm 10 mW/cm2 light for upto 15 mins by DHR123 probe based fluorescence spectra analysis relative to control; format: functional
U-87 MG [2] = assay: (§1) Cytotoxicity against human U87 cells assessed as reduction in cell viability at 0.008 to 1 uM preincubated for 24 hrs under normoxic condition followed by media removal and irradiated with 650 nm 10 mW/cm2 light for 15 mins under normoxic condition prior to media replacement and measured after 24 hrs by MTT assay; format: functional, cell-based; conditions: U-87MG ATCC, dose 0.008-1 µM
U-87 MG [3] = assay: as §1, with “hypoxic” for “normoxic”; format: functional, cell-based; conditions: U-87MG ATCC, dose 0.008-1 µM
[4] = Drug uptake in human SK-MEL-28 cells at 1 uM measured after 24 hrs by flow cytometry; format: ADME, cell-based; conditions: sk-mel-28, 24 h
SK-MEL-28 [5] = assay: Induction of ROS generation in human SK-MEL-28 cells at 1 uM incubated for 24 hrs under hypoxic condition prior to DHE addition for 30 mins followed by media removal and irradiated with 650 nm 10 mW/cm2 light for 15 mins under hypoxic condition by DAPI staining based fluorescence microscopy; format: functional, cell-based
SK-MEL-28 [6] = assay: (§2) Induction of apoptosis in human SK-MEL-28 cells assessed as early apoptotic cells at 1 uM preincubated for 24 hrs under hypoxic condition followed by media removal and irradiated with 650 nm 10 mW/cm2 light for 15 mins under hypoxic condition by Annexin V-FITC/propidium iodide staining based flow cytometry (reference value: 1.8%); format: functional
SK-MEL-28 [7] = assay: as §2, with “necrotic” for “early apoptotic”, “2.63%)” for “1.8%)”; format: functional
SK-MEL-28 [8] = assay: as §2, with “late” for “early”, “normoxic” for “hypoxic”, “1.95%)” for “1.8%)”; format: functional
SK-MEL-28 [9] = assay: as §2, with “at 2” for “at 1”, “under normoxic” for “under hypoxic”; format: functional
SK-MEL-28 [10] = assay: as §2, with “as necrotic” for “as early apoptotic”, “at 2” for “at 1”, “under normoxic” for “under hypoxic”, “value: 2.63%)” for “value: 1.8%)”; format: functional
SK-MEL-28 [11] = assay: Induction of apoptosis in human SK-MEL-28 cells preincubated for 24 hrs under normoxic condition followed by media removal and irradiated with 650 nm 10 mW/cm2 light for 15 mins under normoxic condition by Annexin V-FITC/propidium iodide staining based flow cytometry; format: functional, cell-based; conditions: dose 0.5-2 µM

Which fold change (FC) [1] does the source give for `CCN(CC)c1ccc2nc3c4ccccc4/c(=N\CCCCCCNC(=O)c4cc(Oc5ccc(NC(=O)Nc6ccc(Cl)c(C(F)(F)F)c6)cc5)ccn4)cc-3sc2c1` here?
Its fold change (FC) is 6.6.

And the Activity (U-87 MG [2])?
The Activity was “Active”.

And the Activity (U-87 MG [3])?
The Activity was “Active”.

What about the Drug uptake [4] of the same compound?
Its Drug uptake is “Active”.

What about the Activity (SK-MEL-28 [5]) of the same compound?
The Activity was “Active”.

What about the Activity (SK-MEL-28 [6]) of the same compound?
The Activity was 3.97%.

What about the Activity (SK-MEL-28 [7]) of the same compound?
Its Activity is 19.45%.

What about the Activity (SK-MEL-28 [8]) of the same compound?
Its Activity is 8.8%.

And the Activity (SK-MEL-28 [9])?
The Activity was 39.5%.

What about the Activity (SK-MEL-28 [10]) of the same compound?
Its Activity is 6.54%.

And the Activity (SK-MEL-28 [11])?
Its Activity is “Dose-Dependent Effect”.
